# Results: patent US4374261A, “1-Ethyl-1,4-dihydro-6-(2-naphthyl)-4-oxo-nicotinic acid and esters thereof” (Hoffmann-La Roche Inc., priority 1981, dated 1983)
# Assays:
# mouse = assay: LD50 (mouse), acute toxicity; type: in vivo
# rat = assay: Turning rat test (unilateral 6-OHDA lesion of the medial forebrain bundle); type: in vivo
# Method: Female rats weighing 150 g are anaesthetised with pentobarbital (50 mg kg^-1 i.p.) and fixed in a stereotaxic apparatus (David Kopf). A unilateral (right side) injection into the MFB (medial forebrain bundle) or 6-OHDA (6-hydroxy-dopamine), 3 μg as base, dissolved in 4 μl of Ringer solution containing 0.02% ascorbic acid, is carried out through a stainless-steel cannula (diameter 0.3 mm) connected to a microsyringe. The liquid is injected at a speed of 1 μl min^-1 by means of a high precision infusion pump. In order to reach the MFB (medial forebrain bundle), the following conditions are used: A=+3.8 mm, L (right)=0.9 mm, V=-3 mm according to the Atlas of Konig and Klippel.
# After 3 weeks recovery period, the operated rats are injected with apomorphine, 1 mg kg^1- i.p.. Those animals showing a regular contralateral (i.e., away from the lesioned side) turning, recorded automatically during 1 hour in a rotometer, are selected for further experiments. At least one week is allowed between each injection of screening compounds. […]
# The total number of ipsilateral or contralateral turns (full rotation around the vertical axes of the body) made by each rat, is automatically recorded over the time (usually 1 hour). 5 rats are injected for each dose and the mean of total turns per hour is determined.
# A compound is said active, if it produces more than 100 turns/hour. […] The results are expressed as: […]
# [1] = vs d-amphetamine and d-methamphetamine (Table I)
compound,measurement,setting,value
"CCn1cc(C(=O)O)c(=O)cc1-c1ccc2ccccc2c1 [1-ethyl-1,4-dihydro-6-(2-naphthyl)-4-oxonicotinic acid]",LD50 compared with d-amphetamine and d-methamphetamine,mouse; [1],substantially lower LD50
same,LD50 compared with nomifensin,mouse; vs nomifensin,about the same LD50
same,strength of action compared with d-amphetamine and d-methamphetamine,rat; [1],about the same strength of action
same,activity compared with nomifensin,rat; vs nomifensin,substantially superior to nomifensin
